Source: patent US10596153B2, “Antimicrobial agents and the method of synthesizing the antimicrobial agents” (Arkansas State University—Jonesboro, priority 2016, dated 2020)
Read-outs that look alike come from different tables or passages of the source.

Assays:
Test in all cases: Disk diffusion assay, zone of inhibition
Type in all cases: cell-based
[1] = system: Enterobacter aerogenes ATCC 13048; conditions: N-arylamine derivatives; 10 μL of 0.1 M in DMSO on 6 mm disk; 20-24 hours at 35° C.; NA=No activity
Protocol: (§1) Bacteria were streaked onto Tryptic Soy Agar plates and incubated overnight at 35° C. Bacteria were suspended in sterile saline to the turbidity of a 0.5 McFarland standard then swabbed onto Mueller Hinton Agar plates to create lawns. Test compounds were dissolved in DMSO at a concentration of 0.1 M, and 10 μL of each were pipetted onto 6 mm diameter glass fiber disks placed on the lawns. Plates were incubated for 20-24 hours at 35° C. after which zones of inhibition (diameters in mm) were measured for each test compound.

[2] = system: Pseudomonas aeruginosa ATCC 27853; conditions: N-arylamine derivatives; 10 μL of 0.1 M in DMSO on 6 mm disk; 20-24 hours at 35° C.; NA=No activity
Protocol: as §1

[3] = system: Bacillus subtilis ATCC 6633
Protocol: as §1

[4] = system: Staphylococcus aureus ATCC 25923
Protocol: as §1

[5] = ATCC6633, read-out: Zone of inhibition in mm, B s, azomethines, 10 μL of 0.1 M in DMSO on 6 mm disk, 20-24 hours at 35° C., NA=No activity
[6] = ATCC25923, read-out: Zone of inhibition in mm, S a
[7] = ATCC6633, read-out: Zone of inhibition in mm, B s, N-arylamine derivatives, 10 μL of 0.1 M in DMSO on 6 mm disk, 20-24 hours at 35° C., NA=No activity
[8] = ATCC6633, N-arylamine derivatives, 10 μL of 0.1 M in DMSO on 6 mm disk, 20-24 hours at 35° C., NA=No activity, read-out: Zone of inhibition in mm, B s
[9] = ATCC6633, azomethines, 10 μL of 0.1 M in DMSO on 6 mm disk, 20-24 hours at 35° C., NA=No activity, read-out: Zone of inhibition in mm, B s
[10] = ATCC25923, N-arylamine derivatives, 10 μL of 0.1 M in DMSO on 6 mm disk, 20-24 hours at 35° C., NA=No activity, read-out: Zone of inhibition in mm, S a

## O=C(N[C@H](CO)[C@H](O)c1ccc([N+](=O)[O-])cc1)C(Cl)Cl [Chloramphenicol]
[1]
  Zone of inhibition in mm, E a: 28 mm
[2]
  Zone of inhibition in mm, P a: 8 mm

## Cc1ccccc1 [a]
[3]; [5]
  zone of inhibition at 100000 µM: 8 mm
[4]; [6]
  zone of inhibition at 100000 µM: 20 mm

## Cc1ccc(F)cc1 [b]
[3]; [7]
  zone of inhibition at 100000 µM: 18 mm
[3]; [5]
  zone of inhibition at 100000 µM: 8 mm
[4]; [6]
  zone of inhibition at 100000 µM: 18 mm

## Cc1ccc(Cl)cc1 [c]
[3]; [8]
  zone of inhibition at 100000 µM: 18 mm
[3]; [9]
  zone of inhibition at 100000 µM: 9 mm
[4]; [10]
  zone of inhibition at 100000 µM: 18 mm

## Cc1ccc(Br)cc1 [d]
[3]; [8]
  zone of inhibition at 100000 µM: 8 mm
[3]; [9]
  zone of inhibition at 100000 µM: 8 mm
[4]; [10]
  zone of inhibition at 100000 µM: 9 mm

## Cc1ccc(C)cc1 [e]
[3]; [7]
  zone of inhibition at 100000 µM: 18 mm
[3]; [5]
  zone of inhibition at 100000 µM: 8 mm
[4]; [6]
  zone of inhibition at 100000 µM: 17 mm

## Cc1ccc(C(C)(C)C)cc1 [f]
[3]; [8]
  zone of inhibition at 100000 µM: 14 mm
[3]; [9]
  zone of inhibition at 100000 µM: 8 mm
[4]; [10]
  zone of inhibition at 100000 µM: 8 mm

## COc1ccc(C)cc1 [g]
[3]; [7]
  zone of inhibition at 100000 µM: 14 mm
[3]; [5]
  zone of inhibition at 100000 µM: 10 mm
[4]; [6]
  zone of inhibition at 100000 µM: 15 mm

## Cc1ccc(Oc2ccccc2)cc1 [h]
[3]; [8]
  zone of inhibition at 100000 µM: 12 mm
[4]; [10]
  zone of inhibition at 100000 µM: 11 mm
